Test results from article PMC7415757, “Monocrotaline-induced liver toxicity in rat predicted by a combined in vitro physiologically based kinetic modeling approach” (Archives of Toxicology, 2020).

Experiments:
[1] = Fraction unbound in rat serum by rapid equilibrium dialysis (RED); type: in vitro ADME; settings: 37 °C, read-out: fub, in vivo (fraction unbound)
Procedure: The fub,in vivo was determined by rapid equilibrium dialysis (RED) (Waters et al. [2008]). […] The device was sealed with tape and incubated at 37 °C on a shaker at 250 rpm. After incubation for 5 h when the system reached equilibrium (van Liempd et al. [2011]), 50 µl of post-dialysis samples was collected from the serum and buffer chambers into separate eppendorf tubes. Subsequently, 50 µl of rat serum was added to the buffer samples and 50 µl of PBS was added to the serum samples. To precipitate the protein, 300 µl of ice-cold acetonitrile (90% v/v) was added to both tubes. After putting the mixtures on ice for 30 min, the mixtures were centrifuged at 15,000 g for 30 min at 4 °C, and the supernatants were diluted five times in 90% (v/v) acetonitrile and analyzed by LC–MS as described above. The measurements were performed in triplicate.

[2] = Reported blood kinetics after iv [14C] monocrotaline (Estep et al. 1991); type: in vivo; settings: rat, iv 60 mg/kg bw, from Estep et al. 1991
Procedure: The reported concentration nmol/g is assumed to be equal to nmol/ml or µM. The reported blood concentration is calculated as the sum of the plasma and RBC concentration.

primary rat hepatocytes [3] = tested on: primary rat hepatocytes; design: method as in Tu et al. ([2013]); settings: 2 µM, pH 7.4; ref Tu et al. ([2013]); cited from earlier work
primary rat hepatocytes [4] = test: WST-1 cytotoxicity assay with primary rat hepatocytes; type: cell-based, rat (Sprague–Dawley)
Procedure: The monocrotaline-induced liver toxicity was tested in vitro using the WST-1 assay which measures the formazan formation by the metabolically active cells from WST-1. Pooled cryopreserved plateable male rat (Sprague–Dawley) hepatocytes (RTCP10™) were thawed and seeded in accordance with the manufacturer’s protocol. Briefly, cells were seeded in 96-well plates (Greiner bio-one, Alphen aan den Rijn, The Netherlands) at a concentration of 5 × 10^5 cells/ml to give 1.25 × 10^4 cells/well and incubated at 37 °C, 5% CO2 in a humidified atmosphere for 6 h to allow cell adherence. […] The solvent DMSO (0.5% (v/v) final concentration in exposure medium) was used as a negative control and triton X (final concentration 1% (v/v) in exposure medium) served as a positive control in all cytotoxicity assays. After exposure for 24 h, 5 μl (1:20 dilution) WST-1 reagent was added to each well and plates were incubated for an additional 1 h. Then, the plate was shaken at 1000 rpm for 1 min, and absorbance was measured at 440 nm (background absorbance at 620 nm was subtracted) using a SpectraMax M2 (Molecular Devices, Sunnyvale, USA).
Data are presented as mean values ± SE from three independent experiments with three different batches of rat hepatocytes. The cell viability was expressed as percentage of the solvent control, with the solvent control set at 100%. The obtained concentration–response curves for hepatotoxicity were fitted with a symmetrical sigmoidal model (Hill slope) which was further used to derive IC50 values using log [inhibitor] vs. normalized response using GraphPad Prism software (version 5.00 for Windows, GraphPad software, San Diego, USA).

[5] = Substrate depletion in incubations with pooled rat intestinal microsomes; type: in vitro ADME, rat (Sprague–Dawley)
Procedure: After 5 min of pre-incubation in a shaking water bath at 37 °C, the reactions were started by the addition of 1 mM NADPH. The reactions were carried out for 1 h and 2 h for liver and intestinal microsomes, respectively. For each incubation, a corresponding control incubated in the absence of NADPH was included by adding buffer instead of NADPH. To stop the metabolic conversion, 100 µl of ice-cold methanol was added and the sample was put on ice, then centrifuged at 5000 × g for 20 min at 4 °C using a microcentrifuge (CT15RE, VWR, Leuven, Belgium). Supernatants were diluted 200 times in 90% (v/v) acetonitrile and transferred to LC–MS vials. LC–MS analysis was performed using a Shimadzu Nexera XR LC-20AD SR UPLC system in tandem with a Shimadzu LCMS-8040 mass spectrometer (Shimadzu, Kyoto, Japan). From each incubation, 1 µl of supernatant was loaded onto a Luna Omega polar C18 100A LC column (1.6 µm 100 × 2.1 mm, Phenomenex) fitted with a FP polar precolumn (Phenomenex), using a flow rate of 0.3 ml/min. The temperature was set at 40 °C and 5 °C for column and sample, respectively. The mobile phase consisted of ultrapure water (solvent A) and acetonitrile (solvent B) both containing 0.1% (v/v) formic acid. The gradient began with 100% solvent A (0% B) for 1 min to wash away unwanted salts, followed by a linear gradient from 0 to 5% B till 8 min and a further increase to 100% B in 2 min, keeping the elution at 100% B for 0.5 min, then the column was set back to the starting conditions and equlibrated for 3.4 min before the next injection. […] For all incubations, three independent replicates were performed.
The ratio of Vmax and Km was calculated as the in vitro catalytic efficiency (kcat) expressed in […]. […] The rat liver weight of 8.5 g and small intestine weight of 3.5 g (see Table 1) (Brown et al. [1997]) were used to scaled the in vivo kcat values to values expressed in ml/min/tissue.

male Sprague–Dawley rats = settings: IP single dose 0; 100; 200; 225; 300, 12 h after dosing, BW 100–130 g; ref Copple et al. [2002]; cited from earlier work
[6] = intestine, 20.6 mg microsomal protein/g small intestine, present study
[7] = small intestine, PBK model code

With C[C@H]1C(=O)O[C@@H]2CCN3CC=C(COC(=O)[C@](C)(O)[C@]1(C)O)[C@H]23 [Monocrotaline] the fraction unbound at 5 h, 150 µM [1] was 0.53 ± 0.12, the “Reported concentration of monocrotaline equivalents, blood (plasma + RBCs)” value (from here on “Reported concentration”) ([2]; 5 min) was 257.00 µM and the “Reported concentration” value ([2]; 15 min) was 195.34 µM. The “Reported concentration” value ([2]; 30 min) was 167.41 µM, the “Reported concentration” value ([2]; 60 min) was 149.97 µM and the “Reported concentration” value ([2]; 120 min) was 134.54 µM. For the same molecule, the “Reported concentration” value ([2]; 180 min) was 121.75 µM, the “Reported concentration” value ([2]; 240 min) was 116.71 µM and the “Reported concentration” value ([2]; 300 min) was 92.88 µM. For the same molecule, the “Reported concentration” value ([2]; 360 min) was 97.66 µM, the “Reported concentration” value ([2]; 420 min) was 92.00 µM and the “overall rate for uptake into primary rat hepatocytes” value (primary rat hepatocytes [3]) was 14.5 pmol/mg protein/min. The IC50 (primary rat hepatocytes [4]; Rattus norvegicus, Hepatocyte, 24 h exposure, serum-free medium, WST-1, read-out: IC50 cell viability) was 225 µM, the “decrease in cell viability” value (primary rat hepatocytes [4]; highest concentration 600 µM, 24 h) was “over 60%” and the Km ([5]; Sprague-Dawley, rat, pooled rat intestinal microsomes, pH 7.4, intestine, present study) was 13.4 µM. The “Scaled Vmax” value [5, 6] was 0.4 nmol/min/g tissue, the Scaled kcat [5, 6] was 0.03 ml/min/g tissue and the Vmax ([5]; intestine, present study) was 0.02 nmol/min/mg microsomal protein. For the same molecule, the Scaled kcat ([5]; small intestine weight 3.5 g, present study) was 0.1 ml/min/ tissue, the “KmSiM2, affinity constant” value [5, 7] was 13.39 µmol/L and the “VmaxSiM2c, unscaled maximum rate of metabolism” value [5, 7] was 0.02 nmol/min-1/mg protein. The “POD: NOAEL, increased plasma ALT” value (male Sprague–Dawley rats) was 100 mg/kg bw.
